# Patent publication US10251395B2, “Substituted furano-/thienocycloalkylamino-2-pyrimidine derivatives and use thereof for controlling undesired plant growth” (Bayer CropScience Aktiengesellschaft, priority 2015, dated 2019)
# How the values were obtained:
# [1] = logP (HCOOH); format: physicochemical; conditions: HCOOH
# Description: Table 2 (physicochemical characterization of selected synthesis examples)
# [2] = tested on: Polygonum convolvulus; experiment: Post-emergence herbicidal effect; format: in vivo; conditions: assessed visually after about 3 weeks vs untreated controls
# Procedure, shortened: (§1)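 Seedlings at the one-leaf stage, about 2 to 3 weeks old, are sprayed on their foliage with compound suspended or emulsified in water containing 0.2% wetting agent. After roughly 3 weeks in the greenhouse, injury is estimated visually on a 0 to 100% scale.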
# [3] = tested on: Abutilon theophrasti; experiment: Post-emergence herbicidal effect; format: in vivo; conditions: assessed visually after about 3 weeks vs untreated controls
# Procedure, shortened: as §1
# [4] = tested on: Avena fatua; experiment: Post-emergence herbicidal effect; format: in vivo; conditions: 320 g/ha, assessed visually after about 3 weeks vs untreated controls
# Procedure, shortened: as §1
# [5] = tested on: Viola tricolor; experiment: Post-emergence herbicidal effect; format: in vivo; conditions: assessed visually after about 3 weeks vs untreated controls
# Procedure, shortened: as §1
# [6] = tested on: Ipomoea purpurea; experiment: Post-emergence herbicidal effect; format: in vivo; conditions: assessed visually after about 3 weeks vs untreated controls
# Procedure, shortened: as §1
# [7] = tested on: Stellaria media; experiment: Post-emergence herbicidal effect; format: in vivo; conditions: assessed visually after about 3 weeks vs untreated controls
# Procedure, shortened: as §1
# [8] = tested on: Setaria viridis; experiment: Post-emergence herbicidal effect; format: in vivo; conditions: assessed visually after about 3 weeks vs untreated controls
# Procedure, shortened: as §1
# [9] = tested on: Echinochloa crus-galli; experiment: Post-emergence herbicidal effect; format: in vivo; conditions: assessed visually after about 3 weeks vs untreated controls
# Procedure, shortened: as §1
# [10] = tested on: Matricaria inodora; experiment: Post-emergence herbicidal effect; format: in vivo; conditions: assessed visually after about 3 weeks vs untreated controls
# Procedure, shortened: as §1
# [11] = tested on: Lolium multiflorum; experiment: Post-emergence herbicidal effect; format: in vivo; conditions: assessed visually after about 3 weeks vs untreated controls
# Procedure, shortened: as §1
# [12] = tested on: Amaranthus retroflexus; experiment: Post-emergence herbicidal effect; format: in vivo; conditions: assessed visually after about 3 weeks vs untreated controls
# Procedure, shortened: as §1
# [13] = tested on: Alopecurus myosuroides; experiment: Post-emergence herbicidal effect; format: in vivo; conditions: 320 g/ha, assessed visually after about 3 weeks vs untreated controls
# Procedure, shortened: as §1
# [14] = tested on: Polygonum convolvulus; experiment: Pre-emergence herbicidal effect; format: in vivo; conditions: scored visually after 3 weeks
# Procedure, shortened: (§2)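 Pre-emergence soil-surface application of compound as WP or EC in water (600 to 800 L/ha, 0.2% wetting agent) to freshly sown, soil-covered seeds in sandy loam. After 3 weeks under greenhouse conditions, percent activity rated by eye versus untreated plants, from 0% (no effect) to 100% (death).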
# [15] = tested on: Abutilon theophrasti; experiment: Pre-emergence herbicidal effect; format: in vivo; conditions: Dosage 320 g/ha, scored visually after 3 weeks
# Procedure, shortened: as §2
# [16] = tested on: Avena fatua; experiment: Pre-emergence herbicidal effect; format: in vivo; conditions: Dosage 320 g/ha, scored visually after 3 weeks
# Procedure, shortened: as §2
# [17] = tested on: Viola tricolor; experiment: Pre-emergence herbicidal effect; format: in vivo; conditions: scored visually after 3 weeks
# Procedure, shortened: as §2
# [18] = tested on: Stellaria media; experiment: Pre-emergence herbicidal effect; format: in vivo; conditions: scored visually after 3 weeks
# Procedure, shortened: as §2
# [19] = tested on: Setaria viridis; experiment: Pre-emergence herbicidal effect; format: in vivo; conditions: scored visually after 3 weeks
# Procedure, shortened: as §2
# [20] = tested on: Veronica persica; experiment: Pre-emergence herbicidal effect; format: in vivo; conditions: scored visually after 3 weeks
# Procedure, shortened: as §2
# [21] = tested on: Echinochloa crus-galli; experiment: Pre-emergence herbicidal effect; format: in vivo; conditions: scored visually after 3 weeks
# Procedure, shortened: as §2
# [22] = tested on: Matricaria inodora; experiment: Pre-emergence herbicidal effect; format: in vivo; conditions: scored visually after 3 weeks
# Procedure, shortened: as §2
# [23] = tested on: Lolium multiflorum; experiment: Pre-emergence herbicidal effect; format: in vivo; conditions: scored visually after 3 weeks
# Procedure, shortened: as §2
# [24] = tested on: Amaranthus retroflexus; experiment: Pre-emergence herbicidal effect; format: in vivo; conditions: scored visually after 3 weeks
# Procedure, shortened: as §2
# [25] = tested on: Alopecurus myosuroides; experiment: Pre-emergence herbicidal effect; format: in vivo; conditions: scored visually after 3 weeks
# Procedure, shortened: as §2
# [26] = tested on: Veronica persica; experiment: Post-emergence herbicidal effect; format: in vivo; conditions: 320 g/ha, assessed visually after about 3 weeks vs untreated controls
# Procedure, shortened: as §1
# [27] = tested on: Cyperus esculentus; experiment: Pre-emergence herbicidal effect; format: in vivo; conditions: Dosage 320 g/ha, scored visually after 3 weeks
# Procedure, shortened: as §2
compound,measurement,setting,value
Nc1nc(NC2CCc3sc(Cl)cc32)ncc1C(F)(F)F (racemic) [compound 256],logP (HCOOH),[1],"solid; logP (HCOOH): 2.30; 1H NMR (CDCl3, 400 MHZ, δ in ppm): 2.15 (m, 1H, 1H"
same,post-emergence efficacy POLCO,[2]; 80 g/ha,90%
same,post-emergence efficacy POLCO,[2]; 320 g/ha,90%
same,post-emergence efficacy ABUTH,[3]; 80 g/ha,90%
same,post-emergence efficacy ABUTH,[3]; 320 g/ha,90%
same,post-emergence efficacy AVEFA,[4],70%
same,post-emergence efficacy VIOTR,[5]; 80 g/ha,90%
same,post-emergence efficacy VIOTR,[5]; 320 g/ha,90%
same,post-emergence efficacy PHBPU,[6]; 320 g/ha,100%
same,post-emergence efficacy STEME,[7]; 80 g/ha,100%
same,post-emergence efficacy STEME,[7]; 320 g/ha,100%
same,post-emergence efficacy SETVI,[8]; 80 g/ha,90%
same,post-emergence efficacy SETVI,[8]; 320 g/ha,90%
same,post-emergence efficacy ECHCG,[9]; 80 g/ha,100%
same,post-emergence efficacy ECHCG,[9]; 320 g/ha,100%
same,post-emergence efficacy MATIN,[10]; 80 g/ha,100%
same,post-emergence efficacy MATIN,[10]; 320 g/ha,100%
same,post-emergence efficacy LOLMU,[11]; 320 g/ha,70%
same,post-emergence efficacy AMARE,[12]; 80 g/ha,100%
same,post-emergence efficacy AMARE,[12]; 320 g/ha,100%
same,post-emergence efficacy ALOMY,[13],90%
same,POLCO pre-emergence efficacy (herbicidal activity),[14]; Dosage 80 g/ha,100%
same,POLCO pre-emergence efficacy (herbicidal activity),[14]; Dosage 320 g/ha,100%
same,ABUTH pre-emergence efficacy (herbicidal activity),[15],100%
same,AVEFA pre-emergence efficacy (herbicidal activity),[16],100%
same,VIOTR pre-emergence efficacy (herbicidal activity),[17]; Dosage 80 g/ha,100%
same,VIOTR pre-emergence efficacy (herbicidal activity),[17]; Dosage 320 g/ha,100%
same,STEME pre-emergence efficacy (herbicidal activity),[18]; Dosage 80 g/ha,100%
same,STEME pre-emergence efficacy (herbicidal activity),[18]; Dosage 320 g/ha,100%
same,SETVI pre-emergence efficacy (herbicidal activity),[19]; Dosage 80 g/ha,100%
same,SETVI pre-emergence efficacy (herbicidal activity),[19]; Dosage 320 g/ha,100%
same,VERPE pre-emergence efficacy (herbicidal activity),[20]; Dosage 80 g/ha,100%
same,VERPE pre-emergence efficacy (herbicidal activity),[20]; Dosage 320 g/ha,100%
same,ECHCG pre-emergence efficacy (herbicidal activity),[21]; Dosage 80 g/ha,100%
same,ECHCG pre-emergence efficacy (herbicidal activity),[21]; Dosage 320 g/ha,100%
same,MATIN pre-emergence efficacy (herbicidal activity),[22]; Dosage 80 g/ha,100%
same,MATIN pre-emergence efficacy (herbicidal activity),[22]; Dosage 320 g/ha,100%
same,LOLMU pre-emergence efficacy (herbicidal activity),[23]; Dosage 320 g/ha,100%
same,AMARE pre-emergence efficacy (herbicidal activity),[24]; Dosage 80 g/ha,100%
same,AMARE pre-emergence efficacy (herbicidal activity),[24]; Dosage 320 g/ha,100%
same,ALOMY pre-emergence efficacy (herbicidal activity),[25]; Dosage 80 g/ha,60%
same,ALOMY pre-emergence efficacy (herbicidal activity),[25]; Dosage 320 g/ha,100%
Cc1cc2c(s1)CCC[C@H]2Nc1ncc(I)c(N)n1 [compound 173],post-emergence efficacy POLCO,[2]; 320 g/ha,60%
same,post-emergence efficacy ABUTH,[3]; 80 g/ha,80%
same,post-emergence efficacy ABUTH,[3]; 320 g/ha,90%
same,post-emergence efficacy AVEFA,[4],90%
same,post-emergence efficacy VIOTR,[5]; 80 g/ha,90%
same,post-emergence efficacy VIOTR,[5]; 320 g/ha,90%
same,post-emergence efficacy PHBPU,[6]; 80 g/ha,90%
same,post-emergence efficacy PHBPU,[6]; 320 g/ha,100%
same,post-emergence efficacy STEME,[7]; 80 g/ha,100%
same,post-emergence efficacy STEME,[7]; 320 g/ha,100%
same,post-emergence efficacy SETVI,[8]; 80 g/ha,80%
same,post-emergence efficacy SETVI,[8]; 320 g/ha,90%
same,post-emergence efficacy VERPE,[26],100%
same,post-emergence efficacy ECHCG,[9]; 80 g/ha,100%
same,post-emergence efficacy ECHCG,[9]; 320 g/ha,100%
same,post-emergence efficacy MATIN,[10]; 80 g/ha,60%
same,post-emergence efficacy MATIN,[10]; 320 g/ha,90%
same,post-emergence efficacy LOLMU,[11]; 80 g/ha,60%
same,post-emergence efficacy LOLMU,[11]; 320 g/ha,90%
same,post-emergence efficacy AMARE,[12]; 80 g/ha,90%
same,post-emergence efficacy AMARE,[12]; 320 g/ha,90%
same,post-emergence efficacy ALOMY,[13],100%
same,POLCO pre-emergence efficacy (herbicidal activity),[14]; Dosage 80 g/ha,90%
same,POLCO pre-emergence efficacy (herbicidal activity),[14]; Dosage 320 g/ha,100%
same,ABUTH pre-emergence efficacy (herbicidal activity),[15],100%
same,CYPES pre-emergence efficacy (herbicidal activity),[27],60%
same,AVEFA pre-emergence efficacy (herbicidal activity),[16],60%
same,VIOTR pre-emergence efficacy (herbicidal activity),[17]; Dosage 80 g/ha,100%
same,VIOTR pre-emergence efficacy (herbicidal activity),[17]; Dosage 320 g/ha,100%
same,STEME pre-emergence efficacy (herbicidal activity),[18]; Dosage 80 g/ha,100%
same,STEME pre-emergence efficacy (herbicidal activity),[18]; Dosage 320 g/ha,100%
same,SETVI pre-emergence efficacy (herbicidal activity),[19]; Dosage 80 g/ha,90%
same,SETVI pre-emergence efficacy (herbicidal activity),[19]; Dosage 320 g/ha,100%
same,VERPE pre-emergence efficacy (herbicidal activity),[20]; Dosage 80 g/ha,90%
same,VERPE pre-emergence efficacy (herbicidal activity),[20]; Dosage 320 g/ha,100%
same,ECHCG pre-emergence efficacy (herbicidal activity),[21]; Dosage 80 g/ha,100%
same,ECHCG pre-emergence efficacy (herbicidal activity),[21]; Dosage 320 g/ha,100%
same,MATIN pre-emergence efficacy (herbicidal activity),[22]; Dosage 80 g/ha,100%
same,MATIN pre-emergence efficacy (herbicidal activity),[22]; Dosage 320 g/ha,100%
same,LOLMU pre-emergence efficacy (herbicidal activity),[23]; Dosage 80 g/ha,60%
same,LOLMU pre-emergence efficacy (herbicidal activity),[23]; Dosage 320 g/ha,100%
same,AMARE pre-emergence efficacy (herbicidal activity),[24]; Dosage 80 g/ha,100%
same,AMARE pre-emergence efficacy (herbicidal activity),[24]; Dosage 320 g/ha,100%
same,ALOMY pre-emergence efficacy (herbicidal activity),[25]; Dosage 80 g/ha,60%
same,ALOMY pre-emergence efficacy (herbicidal activity),[25]; Dosage 320 g/ha,80%
